Measurements reported in ChEMBL document CHEMBL4393651, “Class 1 PI3K Clinical Candidates and Recent Inhibitor Design Strategies: A Medicinal Chemistry Perspective” (J Med Chem, 2019).
≈ marks a conversion by molar mass, not a printed value. One block for each molecule: values may come before it.

Tests used:
[1] = Oral bioavailability in rat; format: ADME, organism-based; conditions: in vivo
[2] = target: T1, Phosphatidylinositol 4,5-bisphosphate 3-kinase catalytic subunit beta isoform (Homo sapiens, UniProt P42338); assay: Inhibition of N-terminal His-tagged truncated human PI3Kbeta (deltaN 1 to 108 residues) after 2 hrs in presence of [33P]ATP by BetaPlate liquid scintillation counting analysis
[3] = Aqueous solubility of the compound at pH 7.4; format: physicochemical
[4] = target: T2, Phosphatidylinositol 4,5-bisphosphate 3-kinase catalytic subunit delta isoform (Homo sapiens, UniProt O00329); assay: Inhibition of PI3Kdelta (unknown origin)
T2 sequence (O00329 whole entry): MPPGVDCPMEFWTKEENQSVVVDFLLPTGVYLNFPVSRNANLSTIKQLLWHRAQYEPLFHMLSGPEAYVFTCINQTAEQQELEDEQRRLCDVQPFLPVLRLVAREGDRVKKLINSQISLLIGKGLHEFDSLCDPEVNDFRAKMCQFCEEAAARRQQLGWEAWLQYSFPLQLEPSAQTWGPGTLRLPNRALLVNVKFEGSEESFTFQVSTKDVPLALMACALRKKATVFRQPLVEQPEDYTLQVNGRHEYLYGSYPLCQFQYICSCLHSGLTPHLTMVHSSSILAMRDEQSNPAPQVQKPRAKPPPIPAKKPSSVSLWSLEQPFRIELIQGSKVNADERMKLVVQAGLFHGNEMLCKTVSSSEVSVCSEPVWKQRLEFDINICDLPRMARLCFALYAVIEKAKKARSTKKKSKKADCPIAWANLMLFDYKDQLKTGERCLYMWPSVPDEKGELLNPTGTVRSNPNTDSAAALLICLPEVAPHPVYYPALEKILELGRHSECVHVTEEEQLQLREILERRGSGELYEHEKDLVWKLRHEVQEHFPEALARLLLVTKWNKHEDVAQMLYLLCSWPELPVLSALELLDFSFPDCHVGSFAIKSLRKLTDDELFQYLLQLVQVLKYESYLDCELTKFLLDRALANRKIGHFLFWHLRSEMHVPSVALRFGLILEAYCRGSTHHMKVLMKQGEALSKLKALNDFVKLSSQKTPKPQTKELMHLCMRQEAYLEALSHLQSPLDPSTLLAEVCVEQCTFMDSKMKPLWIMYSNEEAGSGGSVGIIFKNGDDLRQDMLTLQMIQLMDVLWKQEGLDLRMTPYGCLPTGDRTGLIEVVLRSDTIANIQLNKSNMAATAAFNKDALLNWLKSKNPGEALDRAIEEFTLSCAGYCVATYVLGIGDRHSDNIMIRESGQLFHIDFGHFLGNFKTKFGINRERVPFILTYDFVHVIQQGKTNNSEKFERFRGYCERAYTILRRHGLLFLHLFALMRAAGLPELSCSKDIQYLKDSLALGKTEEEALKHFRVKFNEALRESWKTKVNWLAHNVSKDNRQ

[5] = target: T1, Phosphatidylinositol 4,5-bisphosphate 3-kinase catalytic subunit beta isoform; assay: Inhibition of PI3Kbeta (unknown origin)
[6] = target: Phosphatidylinositol 4,5-bisphosphate 3-kinase catalytic subunit alpha isoform (Homo sapiens, UniProt P42336); assay: Inhibition of PI3Kalpha (unknown origin)
[7] = target: Phosphatidylinositol 4,5-bisphosphate 3-kinase catalytic subunit gamma isoform (Homo sapiens, UniProt P48736); assay: Inhibition of PI3Kgamma (unknown origin)
[8] = Inhibition of PI3K in human lung parenchyma cells assessed as reduction in IL2 secretion
[9] = Inhibition of PI3K in human PBMC assessed as reduction in IFNgamma secretion
[10] = Inhibition of PI3K in human lung parenchyma cells assessed as reduction in IFNgamma secretion
Rattus norvegicus = species: Rattus norvegicus; assay: Antiinflammatory activity in Brown Norway rat acute OVA model of Th2 driven lung inflammation assessed as protection against eosinophil recruitment; format: functional

T1 sequence (P42338 whole entry, the tested form may be a part, canonical isoform): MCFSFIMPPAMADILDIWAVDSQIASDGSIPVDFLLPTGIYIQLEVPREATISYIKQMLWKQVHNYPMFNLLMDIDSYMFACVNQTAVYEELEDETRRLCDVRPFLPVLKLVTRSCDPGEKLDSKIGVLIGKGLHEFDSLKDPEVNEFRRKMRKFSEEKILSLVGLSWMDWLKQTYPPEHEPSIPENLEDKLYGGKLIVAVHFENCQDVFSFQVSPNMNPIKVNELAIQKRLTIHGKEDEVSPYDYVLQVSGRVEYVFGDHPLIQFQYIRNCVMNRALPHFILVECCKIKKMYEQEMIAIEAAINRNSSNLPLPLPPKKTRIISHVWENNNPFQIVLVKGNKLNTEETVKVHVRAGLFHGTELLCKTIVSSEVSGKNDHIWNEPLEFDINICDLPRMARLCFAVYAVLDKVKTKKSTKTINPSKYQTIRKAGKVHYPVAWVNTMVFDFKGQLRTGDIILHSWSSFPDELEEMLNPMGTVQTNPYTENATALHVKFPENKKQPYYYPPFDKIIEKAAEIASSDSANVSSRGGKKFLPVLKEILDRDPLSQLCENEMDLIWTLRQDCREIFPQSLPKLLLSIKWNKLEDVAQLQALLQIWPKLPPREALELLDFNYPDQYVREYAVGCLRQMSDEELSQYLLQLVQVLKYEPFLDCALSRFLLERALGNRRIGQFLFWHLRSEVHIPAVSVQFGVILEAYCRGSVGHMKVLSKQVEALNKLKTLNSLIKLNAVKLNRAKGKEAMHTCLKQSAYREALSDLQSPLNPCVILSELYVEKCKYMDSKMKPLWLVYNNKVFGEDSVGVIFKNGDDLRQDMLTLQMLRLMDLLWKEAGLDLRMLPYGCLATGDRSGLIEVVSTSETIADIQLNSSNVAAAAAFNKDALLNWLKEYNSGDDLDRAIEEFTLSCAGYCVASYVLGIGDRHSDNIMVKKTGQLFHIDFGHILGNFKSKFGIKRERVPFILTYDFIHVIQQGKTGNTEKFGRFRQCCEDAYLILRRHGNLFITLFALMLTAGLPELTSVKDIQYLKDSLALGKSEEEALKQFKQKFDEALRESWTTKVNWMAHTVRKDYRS
Chain of Phosphatidylinositol 4,5-bisphosphate 3-kinase catalytic subunit gamma isoform (P48736 whole entry, canonical isoform): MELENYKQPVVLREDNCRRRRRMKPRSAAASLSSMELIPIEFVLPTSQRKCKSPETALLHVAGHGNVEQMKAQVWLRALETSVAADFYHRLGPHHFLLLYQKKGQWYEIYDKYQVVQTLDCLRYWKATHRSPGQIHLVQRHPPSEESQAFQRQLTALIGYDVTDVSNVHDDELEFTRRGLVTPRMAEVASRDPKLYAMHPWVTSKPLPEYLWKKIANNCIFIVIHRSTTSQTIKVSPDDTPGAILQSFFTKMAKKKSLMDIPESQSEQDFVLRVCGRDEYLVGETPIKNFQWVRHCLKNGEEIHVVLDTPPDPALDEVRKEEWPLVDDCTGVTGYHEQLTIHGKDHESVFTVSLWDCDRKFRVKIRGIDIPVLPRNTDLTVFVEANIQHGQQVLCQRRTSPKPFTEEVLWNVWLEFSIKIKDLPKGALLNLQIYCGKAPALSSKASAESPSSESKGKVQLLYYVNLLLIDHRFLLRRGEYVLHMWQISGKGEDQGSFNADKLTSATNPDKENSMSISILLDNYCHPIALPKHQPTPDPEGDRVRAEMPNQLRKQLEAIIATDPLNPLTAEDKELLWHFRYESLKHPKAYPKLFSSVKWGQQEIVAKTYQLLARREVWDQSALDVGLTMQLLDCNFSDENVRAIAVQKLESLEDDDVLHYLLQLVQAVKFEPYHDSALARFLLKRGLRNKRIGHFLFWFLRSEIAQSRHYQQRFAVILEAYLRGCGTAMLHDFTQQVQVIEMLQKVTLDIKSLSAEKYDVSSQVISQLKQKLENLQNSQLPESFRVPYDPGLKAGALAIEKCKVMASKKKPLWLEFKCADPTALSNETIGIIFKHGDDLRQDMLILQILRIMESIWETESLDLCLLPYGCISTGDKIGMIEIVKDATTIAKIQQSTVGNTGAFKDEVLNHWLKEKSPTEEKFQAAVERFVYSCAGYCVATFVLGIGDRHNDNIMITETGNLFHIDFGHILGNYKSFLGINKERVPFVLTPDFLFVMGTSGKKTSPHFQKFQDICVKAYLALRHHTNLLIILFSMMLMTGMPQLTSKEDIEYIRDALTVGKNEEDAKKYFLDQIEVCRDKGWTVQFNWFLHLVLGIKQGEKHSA
Chain of Phosphatidylinositol 4,5-bisphosphate 3-kinase catalytic subunit alpha isoform (P42336 whole entry, canonical isoform): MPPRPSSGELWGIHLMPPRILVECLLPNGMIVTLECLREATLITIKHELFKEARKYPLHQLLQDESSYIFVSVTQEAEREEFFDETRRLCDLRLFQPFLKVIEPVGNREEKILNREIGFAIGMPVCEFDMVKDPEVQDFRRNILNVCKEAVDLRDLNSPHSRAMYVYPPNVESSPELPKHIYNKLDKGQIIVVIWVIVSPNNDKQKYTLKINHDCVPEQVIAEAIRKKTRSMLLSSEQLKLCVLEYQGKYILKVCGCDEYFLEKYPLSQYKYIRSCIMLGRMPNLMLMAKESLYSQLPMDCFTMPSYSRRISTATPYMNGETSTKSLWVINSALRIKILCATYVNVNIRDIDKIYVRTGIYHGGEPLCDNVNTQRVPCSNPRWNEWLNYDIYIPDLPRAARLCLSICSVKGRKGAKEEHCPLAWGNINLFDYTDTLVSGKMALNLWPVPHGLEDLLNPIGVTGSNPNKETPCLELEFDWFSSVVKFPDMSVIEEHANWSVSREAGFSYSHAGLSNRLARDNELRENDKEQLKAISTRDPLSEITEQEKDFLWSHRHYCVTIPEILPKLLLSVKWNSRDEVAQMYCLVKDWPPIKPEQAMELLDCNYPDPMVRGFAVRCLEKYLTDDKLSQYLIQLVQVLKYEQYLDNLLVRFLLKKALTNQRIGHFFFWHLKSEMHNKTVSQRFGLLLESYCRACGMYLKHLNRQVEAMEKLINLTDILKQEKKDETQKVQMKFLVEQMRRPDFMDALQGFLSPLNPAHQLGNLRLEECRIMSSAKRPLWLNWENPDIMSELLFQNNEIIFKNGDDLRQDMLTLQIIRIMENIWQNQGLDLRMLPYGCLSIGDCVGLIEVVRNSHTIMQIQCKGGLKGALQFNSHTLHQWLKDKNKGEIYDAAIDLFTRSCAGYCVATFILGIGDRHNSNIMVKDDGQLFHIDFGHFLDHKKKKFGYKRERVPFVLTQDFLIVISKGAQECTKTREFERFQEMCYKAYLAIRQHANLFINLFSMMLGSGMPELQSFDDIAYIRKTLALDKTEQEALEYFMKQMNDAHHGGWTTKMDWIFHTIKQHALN

SMILES: O=C(NC1=Nc2ccccc2C2=NCCN12)c1cccnc1
- IC50 [2]: 0.001 µM

SMILES: Cc1nnc2n1[C@@H]1CCN(Cc3cc4nc(-c5cccc6[nH]ccc56)nc(N5CCOCC5)c4s3)C[C@@H]1CC2
- solubility [3]: 0.02 mg/mL (≈ 37 µM)
- IC50 [4]: 0.000794 µM

SMILES: Cc1nc(C(=O)Nc2cc(-c3cnc(Cl)c(NS(=O)(=O)c4ccccc4)c3)cc3[nH]ncc23)cs1
- IC50 [5]: 1 µM
- IC50 [6]: 0.316 µM
- IC50 [4]: 0.002 µM
- IC50 [7]: 0.0501 µM

The next lines start with results.

- bioavailability [1]: < 2%
SMILES: CC(C)N1CCN(Cc2cnc(-c3cc(-c4cccc5[nH]ccc45)cc4[nH]ncc34)o2)CC1 [NEMIRALISIB]

- IC50 [8]: 0.00316 µM
- Ki [5]: 0.631 µM
- IC50 [10]: 0.002 µM
- Ki [6]: 0.501 µM
- Ki [7]: 0.501 µM
SMILES: COc1ncc(-c2cc(-c3ncc(CN4C[C@@H](C)O[C@@H](C)C4)o3)c3cn[nH]c3c2)cc1NS(C)(=O)=O
- pKi [9]: 9.2
- ED50 (Rattus norvegicus): 0.035 mg/kg
